Reference: PubChem BioAssay AID1918930 (Molecular Pharmacology Branch, DTP, NCI, 2023)

Test system: 233499-124-R-J3-PDC complex spheroid viability, % test/control
Assay: Anticancer human tumor 233499-124-R-J3-PDC patient-derived colon adenocarcinoma cell line growth inhibition
Details: for IC50: curve of first compound; for viability, T/C: stronger effect = lower value
Text: Multicellular complex tumor spheroid response to LSD1 Inhibitor Iadademstat in combination with a variety of drugs and investigational agents in selected tumor cell lines
The current study was undertaken to assess response to LSD1 inhibitors in combination with standard-of-care drugs and investigational agents in solid tumor complex spheroid models as well as in the K-562 leukemia. Complex spheroids include a stromal component modeled by human endothelial cells (HUVEC) and fibroblasts modeled by human mesenchymal stem cells (MSCs). The concentration ranges selected for each drug and investigational agent were based upon clinically achievable concentrations if the clinical Cmax of the agent was known.
Compounds. The drugs and investigational agents used in this study are listed on Table 1. All of the agents used, including staurosporine (NSC755774) and gemcitabine (NSC613327), were obtained from the Developmental Therapeutics Program, NCI. FDA-approved anticancer drugs are available from the NCI at http://dtp.nci.nih.gov/branches/dscb/oncology_drugset_explanation.html. Drugs and investigational agents were >95% pure by proton nuclear magnetic resonance (NMR) and liquid chromatography/mass spectrometry (LC/MS). Stock solutions were prepared at 400x in DMSO, stored at -70 degrees C, and diluted in fresh medium prior to their use. The final concentration of DMSO in cell culture wells never exceeded 0.25% (v/v). The FDA-approved anticancer drug set is available from the Developmental Therapeutics Program at https://dtp.cancer.gov/organization/dscb/obtaining/available_plates.htm. All drugs and investigational agents were tested over a range starting from a high concentration at or near the clinical Cmax and decreasing in half-log increments. If the clinical Cmax for an agent had not been determined, the highest concentration tested was 10 microM.
Cell Lines. The patient-derived cancer cell (PDC) lines: 292921-168-R-J2-PDC, K24384-001-R-PDC, and 521955-158-R2-J5-PDC pancreatic carcinomas, 556581-035-R-J1 ovarian carcinoma, 324938-238-R-J1-PDC, 855422-203-R-J1-PDC and 883617-216-R-J1-PDC urothelial bladder carcinomas, 743489-274-T-PDC renal cell carcinoma, 138582-R-J1 Merkel cell tumor, K60290-347-R-J1 and K57222-313-R-J1-PDC glioblastomas, 653999-131-R-J2-PDC, LG0703-F948-PDC, and 349418-098-R-PDC non-small cell lung carcinomas, 885512-296-R-J2-PDC, 171881-019-R-J1-PDC breast carcinomas and 186277-243-T-J2-PDC and 233499-124-R-J2-PDC colon carcinomas were obtained from the NCI Patient-Derived Models Repository (PDMR, https://pdmr.cancer.gov). The established cell lines NCI/ADR-RES (RRID:CVCL_14520 and OVCAR-5 (RRID:CVCL_1628) ovarian carcinomas, 786-O (RRID:CVCL_1051) and A498 (RRID:CVCL_A498) renal cell carcinoma, NCI-H211 (ATCC, cat. CRL-5824; RRID:CVCL_1529), NCI-H196 (ATCC, cat. CRL-5823, RRID:CVCL_1509), SW 1271 (ATCC, cat. CRL-2177, RRID:CVCL_1716) and NCI-H1876 (ATCC, cat. CRL-5902, RRID:CVCL_1503) small cell lung carcinomas, MDA-MB-231 (RRID:CVCL_0062) and MDA-MB-468 (RRID:CVCL_0419)breast carcinomas (10-12). Pooled donor human umbilical vein endothelial cells (HUVEC, Lonza, cat. CC-2519) and human mesenchymal stem cells (hMSC, Lonza, cat. PT-2501) were purchased from Lonza (Walkersville, MD).
Cell Culture. All cells were maintained in an incubator at 37 degrees C and 5% CO2 with 95% humidity. The PDC lines were cultured according to standard operating procedures established by the NCI PDMR (https://pdmr.cancer.gov). Briefly all PDCs were thawed and cultured in Matrigel-coated flasks prepared with a working solution of 1X Ham's F-12 nutrient mix, without supplementation (Invitrogen, Waltham, MA, cat. 11765054), 100 U/mL penicillin-streptomycin (Invitrogen, cat. 15140122), and 2.5% Matrigel (Corning Inc., Corning, NY, cat. 354248) for the first three passages. […]

[1] = second compound 0.1 µM, first compound 0.00316 µM
[2] = second compound 0.1 µM, first compound 0.01 µM
[3] = second compound 0.1 µM, first compound 0.0316 µM
[4] = second compound 0.1 µM, first compound 0.1 µM
[5] = second compound 0.316 µM, first compound 0.00316 µM
[6] = second compound 0.316 µM, first compound 0.01 µM
[7] = second compound 0.316 µM, first compound 0.0316 µM
[8] = second compound 0.316 µM, first compound 0.1 µM
[9] = second compound 1 µM, first compound 0.00316 µM
[10] = second compound 1 µM, first compound 0.01 µM
[11] = second compound 1 µM, first compound 0.0316 µM
[12] = second compound 1 µM, first compound 0.1 µM
[13] = second compound 3.16 µM, first compound 0.00316 µM
[14] = second compound 3.16 µM, first compound 0.01 µM
[15] = second compound 3.16 µM, first compound 0.0316 µM
[16] = second compound 3.16 µM, first compound 0.1 µM
[17] = second compound 10 µM, first compound 0.00316 µM
[18] = second compound 10 µM, first compound 0.01 µM
[19] = second compound 10 µM, first compound 0.0316 µM
[20] = second compound 10 µM, first compound 0.1 µM
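Also: spheroids exposed to agents for one week before readout.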

`CC[C@@]1(O)C(=O)OCc2c1cc1n(c2=O)Cc2cc3c(CN(C)C)c(O)ccc3nc2-1` + NC1CC1c1ccc(-c2cccc(O)c2)cc1 was tested, and the IC50 (second compound 0.1 µM) was > 100 nM, the IC50 (second compound 0.316 µM) was > 100 nM and the IC50 (second compound 1 µM) was > 100 nM. For the same molecule, the IC50 (second compound 3.16 µM) was > 100 nM, the IC50 (second compound 10 µM) was > 100 nM and the viability, T/C (second compound 0.1 µM, first compound 0.000316 µM) was 109%. It also gave a viability, T/C (second compound 0.1 µM, first compound 0.001 µM) of 99%, a viability, T/C [1] of 81.8% and a viability, T/C [2] of 52.1%. The viability, T/C [3] was 73.5%, the viability, T/C [4] was 115% and the viability, T/C (second compound 0.316 µM, first compound 0.000316 µM) was 96.6%. The viability, T/C (second compound 0.316 µM, first compound 0.001 µM) was 90%, the viability, T/C [5] was 72.3% and the viability, T/C [6] was 71.4%. It also gave a viability, T/C [7] of 79.5%, a viability, T/C [8] of 107% and a viability, T/C (second compound 1 µM, first compound 0.000316 µM) of 86.7%. It also gave a viability, T/C (second compound 1 µM, first compound 0.001 µM) of 94%, a viability, T/C [9] of 62.1% and a viability, T/C [10] of 67.9%. It also gave a viability, T/C [11] of 57.3%, a viability, T/C [12] of 104% and a viability, T/C (second compound 3.16 µM, first compound 0.000316 µM) of 89.3%. It also gave a viability, T/C (second compound 3.16 µM, first compound 0.001 µM) of 96.3%, a viability, T/C [13] of 63.6% and a viability, T/C [14] of 68.3%. The viability, T/C [15] was 70%, the viability, T/C [16] was 94.1% and the viability, T/C (second compound 10 µM, first compound 0.000316 µM) was 77.7%. The viability, T/C (second compound 10 µM, first compound 0.001 µM) was 67.9%, the viability, T/C [17] was 53.8% and the viability, T/C [18] was 53.6%. For the same molecule, the viability, T/C [19] was 58.7% and the viability, T/C [20] was 93.5%.
In the case of `COc1cc(C2c3cc4c(cc3C(OC3OC5COC(C)OC5C(O)C3O)C3COC(=O)C23)OCO4)cc(OC)c1O` (stereo not given) + NC1CC1c1ccc(-c2cccc(O)c2)cc1, the IC50 (second compound 0.1 µM) is reported as 717 nM, the IC50 (second compound 0.316 µM) is reported as 1690 nM and the IC50 (second compound 1 µM) is reported as 1540 nM. The IC50 (second compound 3.16 µM) was 728 nM, the IC50 (second compound 10 µM) was 209 nM and the viability, T/C (second compound 0.1 µM, first compound 0.00949 µM) was 104%. The viability, T/C (second compound 0.1 µM, first compound 0.03 µM) was 101%, the viability, T/C (second compound 0.1 µM, first compound 0.0949 µM) was 86.5% and the viability, T/C (second compound 0.1 µM, first compound 0.3 µM) was 57%. For the same molecule, the viability, T/C (second compound 0.1 µM, first compound 0.949 µM) was 51.9%, the viability, T/C (second compound 0.1 µM, first compound 3 µM) was 41.5% and the viability, T/C (second compound 0.316 µM, first compound 0.00949 µM) was 109%. It also gave a viability, T/C (second compound 0.316 µM, first compound 0.03 µM) of 113%, a viability, T/C (second compound 0.316 µM, first compound 0.0949 µM) of 94.8% and a viability, T/C (second compound 0.316 µM, first compound 0.3 µM) of 73.4%. For the same molecule, the viability, T/C (second compound 0.316 µM, first compound 0.949 µM) was 51.5%, the viability, T/C (second compound 0.316 µM, first compound 3 µM) was 47.8% and the viability, T/C (second compound 1 µM, first compound 0.00949 µM) was 94.3%. The viability, T/C (second compound 1 µM, first compound 0.03 µM) was 82.1%, the viability, T/C (second compound 1 µM, first compound 0.0949 µM) was 73.3% and the viability, T/C (second compound 1 µM, first compound 0.3 µM) was 60.6%. It also gave a viability, T/C (second compound 1 µM, first compound 0.949 µM) of 53.7%, a viability, T/C (second compound 1 µM, first compound 3 µM) of 45.5% and a viability, T/C (second compound 3.16 µM, first compound 0.00949 µM) of 91.1%. It also gave a viability, T/C (second compound 3.16 µM, first compound 0.03 µM) of 86.2%, a viability, T/C (second compound 3.16 µM, first compound 0.0949 µM) of 73% and a viability, T/C (second compound 3.16 µM, first compound 0.3 µM) of 62.1%. It also gave a viability, T/C (second compound 3.16 µM, first compound 0.949 µM) of 42%, a viability, T/C (second compound 3.16 µM, first compound 3 µM) of 46.6% and a viability, T/C (second compound 10 µM, first compound 0.00949 µM) of 71.4%. The viability, T/C (second compound 10 µM, first compound 0.03 µM) was 72.4%, the viability, T/C (second compound 10 µM, first compound 0.0949 µM) was 63.1% and the viability, T/C (second compound 10 µM, first compound 0.3 µM) was 44%. The viability, T/C (second compound 10 µM, first compound 0.949 µM) was 46.5% and the viability, T/C (second compound 10 µM, first compound 3 µM) was 40.6%.
`Nc1ncn(C2CC(O)C(CO)O2)c(=O)n1` (stereo not given) + NC1CC1c1ccc(-c2cccc(O)c2)cc1 was tested, and the IC50 (second compound 0.1 µM) was > 1000 nM, the IC50 (second compound 0.316 µM) was > 1000 nM and the IC50 (second compound 1 µM) was > 1000 nM. For the same molecule, the IC50 (second compound 3.16 µM) was > 1000 nM, the IC50 (second compound 10 µM) was > 1000 nM and the viability, T/C [1] was 101%. It also gave a viability, T/C [2] of 98.9%, a viability, T/C [3] of 86.8% and a viability, T/C [4] of 81.2%. For the same molecule, the viability, T/C (second compound 0.1 µM, first compound 0.316 µM) was 89.6%, the viability, T/C (second compound 0.1 µM, first compound 1 µM) was 108% and the viability, T/C [5] was 120%. For the same molecule, the viability, T/C [6] was 99.5%, the viability, T/C [7] was 92.2% and the viability, T/C [8] was 75%. For the same molecule, the viability, T/C (second compound 0.316 µM, first compound 0.316 µM) was 96.9%, the viability, T/C (second compound 0.316 µM, first compound 1 µM) was 87.6% and the viability, T/C [9] was 104%. The viability, T/C [10] was 89.9%, the viability, T/C [11] was 72.9% and the viability, T/C [12] was 83.7%. The viability, T/C (second compound 1 µM, first compound 0.316 µM) was 69.1%, the viability, T/C (second compound 1 µM, first compound 1 µM) was 88.4% and the viability, T/C [13] was 82.5%. For the same molecule, the viability, T/C [14] was 93.2%, the viability, T/C [15] was 80.4% and the viability, T/C [16] was 74.4%. The viability, T/C (second compound 3.16 µM, first compound 0.316 µM) was 74.6%, the viability, T/C (second compound 3.16 µM, first compound 1 µM) was 92% and the viability, T/C [17] was 80.5%. It also gave a viability, T/C [18] of 83.9%, a viability, T/C [19] of 80.5% and a viability, T/C [20] of 60.9%. The viability, T/C (second compound 10 µM, first compound 0.316 µM) was 58.1% and the viability, T/C (second compound 10 µM, first compound 1 µM) was 90.9%.
